The NIST ThermoML archive (doi:10.1016/j.jct.2016.08.001)
± gives the expanded uncertainty stated by the source.

How the values were obtained:
[1] = refractive index (Na D-line) (dimensionless); xn = mol fraction of the nth substance listed; details: 100 kPa, Liquid, Standard Abbe refractometry
[2] = xn = mol fraction of the nth substance listed; details: 100 kPa, Liquid; for speed of sound: Frequency=3 MHz, Sing-around technique in a fixed-path interferometer; for mass density: Vibrating tube method

N#Cc1ccccc1 [benzonitrile] + CCOC(=O)OCC
Details | mass density, [2] [kg/m3] | refractive index, [1] | speed of sound, [2] [m/s]
298.15 K, x2 = 0 | 1000.6 ± 1 | 1.526 ± 0.0016 | 1415.6 ± 1.5
298.15 K, x2 = 0.0854 | 998.8 ± 1 | 1.5123 ± 0.0016 | 1396.3 ± 1.5
298.15 K, x2 = 0.1886 | 996.7 ± 1 | 1.4963 ± 0.0016 | 1373.1 ± 1.5
298.15 K, x2 = 0.2618 | 994.9 ± 1 | 1.4851 ± 0.0016 | 1356.1 ± 1.5
298.15 K, x2 = 0.3642 | 992.1 ± 1 | 1.4698 ± 0.0016 | 1331.9 ± 1.5
298.15 K, x2 = 0.462 | 989.3 ± 1 | 1.4556 ± 0.0016 | 1308.6 ± 1.5
298.15 K, x2 = 0.5563 | 986.3 ± 1 | 1.442 ± 0.0016 | 1286.1 ± 1.5
298.15 K, x2 = 0.6599 | 982.7 ± 1 | 1.4275 ± 0.0016 | 1261 ± 1.5
298.15 K, x2 = 0.7732 | 978.5 ± 1 | 1.412 ± 0.0016 | 1233.3 ± 1.5
298.15 K, x2 = 0.8703 | 974.6 ± 1 | 1.3991 ± 0.0016 | 1209.4 ± 1.6
303.15 K, x2 = 0 | 995.9 ± 1 | 1.5235 ± 0.0016 | 1398.1 ± 1.5
303.15 K, x2 = 0.0854 | 994 ± 1 | 1.5098 ± 0.0016 | 1378.5 ± 1.5
303.15 K, x2 = 0.1886 | 991.9 ± 1 | 1.494 ± 0.0016 | 1354.8 ± 1.5
303.15 K, x2 = 0.2618 | 990 ± 1 | 1.4828 ± 0.0016 | 1337.7 ± 1.5
303.15 K, x2 = 0.3642 | 987.2 ± 1 | 1.4676 ± 0.0016 | 1313.1 ± 1.5
303.15 K, x2 = 0.462 | 984.3 ± 1 | 1.4533 ± 0.0016 | 1289.5 ± 1.5
303.15 K, x2 = 0.5563 | 981.2 ± 1 | 1.4398 ± 0.0016 | 1266.7 ± 1.5
303.15 K, x2 = 0.6599 | 977.5 ± 1 | 1.4253 ± 0.0016 | 1241.3 ± 1.5
303.15 K, x2 = 0.7732 | 973.2 ± 1 | 1.4098 ± 0.0016 | 1213.3 ± 1.5
303.15 K, x2 = 0.8703 | 969.2 ± 1 | 1.3969 ± 0.0016 | 1189.2 ± 1.5
308.15 K, x2 = 0 | 991.4 ± 1 | 1.5209 ± 0.0016 | 1380.8 ± 1.5
308.15 K, x2 = 0.0854 | 989.5 ± 1 | 1.5074 ± 0.0016 | 1360.8 ± 1.5
308.15 K, x2 = 0.1886 | 987.2 ± 1 | 1.4916 ± 0.0016 | 1336.7 ± 1.5
308.15 K, x2 = 0.2618 | 985.3 ± 1 | 1.4806 ± 0.0016 | 1319.3 ± 1.5
308.15 K, x2 = 0.3642 | 982.3 ± 1 | 1.4653 ± 0.0016 | 1294.4 ± 1.5
308.15 K, x2 = 0.462 | 979.3 ± 1 | 1.4511 ± 0.0016 | 1270.6 ± 1.5
308.15 K, x2 = 0.5563 | 976.1 ± 1 | 1.4376 ± 0.0016 | 1247.4 ± 1.5
308.15 K, x2 = 0.6599 | 972.3 ± 1 | 1.4231 ± 0.0016 | 1221.8 ± 1.5
308.15 K, x2 = 0.7732 | 967.8 ± 1 | 1.4076 ± 0.0016 | 1193.5 ± 1.5
308.15 K, x2 = 0.8703 | 963.7 ± 1 | 1.3946 ± 0.0016 | 1169.1 ± 1.5
313.15 K, x2 = 0 | 986.9 ± 1 | 1.5184 ± 0.0016 | 1363.6 ± 1.5
313.15 K, x2 = 0.0854 | 984.9 ± 1 | 1.505 ± 0.0016 | 1343.2 ± 1.5
313.15 K, x2 = 0.1886 | 982.5 ± 1 | 1.4893 ± 0.0016 | 1318.7 ± 1.5
313.15 K, x2 = 0.2618 | 980.5 ± 1 | 1.4783 ± 0.0016 | 1301 ± 1.5
313.15 K, x2 = 0.3642 | 977.4 ± 1 | 1.4631 ± 0.0016 | 1275.9 ± 1.5
313.15 K, x2 = 0.462 | 974.2 ± 1 | 1.4489 ± 0.0016 | 1251.8 ± 1.5
313.15 K, x2 = 0.5563 | 970.9 ± 1 | 1.4353 ± 0.0016 | 1228.3 ± 1.5
313.15 K, x2 = 0.6599 | 967 ± 1 | 1.4208 ± 0.0016 | 1202.4 ± 1.5
313.15 K, x2 = 0.7732 | 962.4 ± 1 | 1.4054 ± 0.0016 | 1173.8 ± 1.5
313.15 K, x2 = 0.8703 | 958.2 ± 1 | 1.3924 ± 0.0016 | 1149.2 ± 1.5
318.15 K, x2 = 0 | 982.5 ± 1 | 1.5158 ± 0.0016 | 1346.5 ± 1.5
318.15 K, x2 = 0.0854 | 980.4 ± 1 | 1.5025 ± 0.0016 | 1325.7 ± 1.5
318.15 K, x2 = 0.1886 | 977.9 ± 1 | 1.487 ± 0.0016 | 1300.8 ± 1.5
318.15 K, x2 = 0.2618 | 975.8 ± 1 | 1.4761 ± 0.0016 | 1282.9 ± 1.5
318.15 K, x2 = 0.3642 | 972.5 ± 1 | 1.4609 ± 0.0016 | 1257.4 ± 1.5
318.15 K, x2 = 0.462 | 969.2 ± 1 | 1.4466 ± 0.0016 | 1233 ± 1.5
318.15 K, x2 = 0.5563 | 965.8 ± 1 | 1.4332 ± 0.0016 | 1209.3 ± 1.5
318.15 K, x2 = 0.6599 | 961.7 ± 1 | 1.4187 ± 0.0016 | 1183.2 ± 1.5
318.15 K, x2 = 0.7732 | 956.9 ± 1 | 1.4032 ± 0.0016 | 1154.3 ± 1.5
318.15 K, x2 = 0.8703 | 952.7 ± 1 | 1.3902 ± 0.0016 | 1129.5 ± 1.5
323.15 K, x2 = 0 | 977.9 ± 1 | 1.5133 ± 0.0016 | 1329.5 ± 1.5
323.15 K, x2 = 0.0854 | 975.8 ± 1 | 1.5002 ± 0.0016 | 1308.3 ± 1.5
323.15 K, x2 = 0.1886 | 973.2 ± 1 | 1.4848 ± 0.0016 | 1282.9 ± 1.5
323.15 K, x2 = 0.2618 | 971 ± 1 | 1.4739 ± 0.0016 | 1264.9 ± 1.5
323.15 K, x2 = 0.3642 | 967.6 ± 1 | 1.4587 ± 0.0016 | 1239.3 ± 1.5
323.15 K, x2 = 0.462 | 964.2 ± 1 | 1.4445 ± 0.0016 | 1214.5 ± 1.5
323.15 K, x2 = 0.5563 | 960.6 ± 1 | 1.431 ± 0.0016 | 1190.6 ± 1.5
323.15 K, x2 = 0.6599 | 956.5 ± 1 | 1.4165 ± 0.0016 | 1164.1 ± 1.5
323.15 K, x2 = 0.7732 | 951.5 ± 1 | 1.401 ± 0.0016 | 1135 ± 1.5
323.15 K, x2 = 0.8703 | 947.1 ± 1 | 1.3881 ± 0.0016 | 1110 ± 1.5
